Data set [1] deals with E. coli ATCC 25922. Briefly: Flow cytometry (FCM) membrane depolarization, DiBAC4(3). The class given is cell-based, Escherichia coli. Particulars: DiBAC4, 18–24 h. The method, then:
(§1) The investigation of potential mechanisms of antimicrobial action by flow cytometry (FCM) was performed on microbial cultures obtained after 18–24 h of microbial cell incubation in the presence of subinhibitory concentrations of the analyzed compounds. Thus, microbial suspensions with a density of approximately 10^6 CFU/mL were prepared in sterile saline phosphate buffer from exponentially growing microbial cultures, obtained on a solid culture medium. Subinhibitory concentrations of the compounds were prepared in Muller–Hinton liquid culture medium and inoculated with an equal amount of microbial suspension and incubated for 18–24 h at 37 °C.
(§2) Microbial suspensions inoculated in a liquid medium were used as growth control. After incubation, the DiBAC4 fluorochrome solution [bis-(1,3-dibutylbarbituric acid) trimethinoxonol] Invitrogen/Life Technologies, Carlsbad, was added (0.5 μg/mL).
(§3) Fluorescence intensity (FI) was measured with an Accuri C6 plus flow cytometer in the FITC fluorescence channel. Growth control was used to locate the microbial cell population for fluorescence measurements. DiBAC4 dye was used to detect changes in the microbial membrane potential. […] A twofold increased fluorescence intensity (median fluorescence intensity = MFI) was considered to correspond to the depolarized microbial cells. For each subinhibitory concentration, a coloring index (CI) was calculated which represents the ratio of fluorescence intensity (FI) of treated versus untreated cells.

Data set [2] has as its system P. aeruginosa ATCC 27892. Described as above. The class given is cell-based, Pseudomonas aeruginosa. Particulars: subinhibitory concentration tested 2.5 mg/mL, DiBAC4, 18–24 h. The method, then:
as §1, §2, §3

In data set [3] the test system is Artemia franciscana Kellog nauplii. The experiment in a line: Toxicity on the Artemia franciscana Kellog crustacean species (lethality of nauplii). Particulars: tested concentrations 6.2–100 μg/mL (solubility limit), 24 h. The class given is in vivo. The method, then: The oocysts (Great Salt Lake, USA) provided by S.K. Trading were grown on artificial seawater medium (Coral Marine, Grotech), dissolved in distilled water with a few minutes of sonication, at 30 g/L concentration. The test was carried out in a 24-well plate, using three replicates. Because of their low solubility, the compounds 1a–d were suspended in the culture medium using sodium alginate (0.045%) (also used a negative control), the testing being carried out at the solubility limit. The concentrations 100, 50, 25, 12.5 and 6.2 μg/mL used for each substance were obtained by successive dilutions starting from the initial suspension. Between 10 and 15 nauplii per well were collected and placed in contact with the test suspensions (1.5 mL/well). All nauplii, dead or alive, were counted and recorded within 24 h of being placed in contact with the tested suspensions. The non-linear modeling of the concentration-lethality relationship was achieved through a four-parameter logistics model (4PL), implemented in several robust variants for estimating parameters in the R package “dr4pl” [78].

The subject of data set [4] is S. aureus ATCC 25923. Briefly: Flow cytometry (FCM) membrane depolarization, DiBAC4(3). The class given is cell-based, Staphylococcus aureus. The note with it: for staining index value (SI): S. aureus ATCC 25923, DiBAC4, 18–24 h. As to the method:
as §1, §2, §3
A general note: In flow cytometry, cells or beads pass a laser one at a time.

In data set [5] the test system is C. albicans ATCC 90029. The experiment in a line: Anti-biofilm activity assay, purple violet microtiter method. The class given is cell-based, Candida albicans. The note with it: C. albicans ATCC 90029 biofilm. As to the method: (§4) The inhibitory activity of the obtained compounds has been assessed on five microbial strains, respectively: E. coli ATCC 25922, P. aeruginosa ATCC 27853, S. aureus ATCC 25923, E. faecalis ATCC 29212 and C. albicans ATCC 90029, in a planktonic and adherent growth state.
(§5) The anti-biofilm activity assay was performed by the purple violet microtiter method, as previously described, allowing us to determine the minimal biofilm inhibitory concentration (MBEC). The same range of concentrations, as in the MIC assay, i.e., from 5 to 0.009 mg/mL has been tested.

Data set [6] is described as follows: Scavenger activity towards DPPH free radical. Particulars: 30 min; for IC50: linear regression over 25–1000 μM, mean ± SD of three, read-out: IC50 by means of DPPH assay. The class given is biochemical. As to the method:
The DPPH (Sigma-Aldrich, Darmstadt, Germany) solution of 0.1 mM concentration was obtained by dissolving 0.0039 g of free radical in 100 mL ethanol, in a volumetric flask. For all determinations, the DPPH solution was freshly prepared and kept in the dark. Ethanol has been chosen since tested compounds were dissolved in ethanol: DMSO = 99:1 (v/v) mixture.
The analyzed compounds were dissolved in 25 mL of ethanol: DMSO = 99:1 (v/v) mixture in a final concentration of 1000 μM (stock solution), from which several concentrations of 25 μM, 50 μM, 75 μM, 100 μM, 250 μM and 500 μM were obtained by successive dilutions.
The determination of the antioxidant activity was based on the Ohnishi M et al. method, quoted by Germano M.P. et al..
[…] The samples were kept at rest in the dark for 30 min [79, 81]. Ethanol was used as a blank in order to measure the absorbance at 515 nm (Jasco V-530 spectrophotometer, Jasco, Japan).
The following formula was used to determine DPPH free radical scavenger activity (%): Inhibition %=Acontrol−Asample/Acontrol×100 where, A = absorbance of the 0.1 mM DPPH solution in the absence (control)/presence (sample) of tested compounds after 30 min.
(§6) For both the above-mentioned methods, the antioxidant activity was expressed as IC50 values (μM) which represent the concentration of each compound for which the scavenging activity of free radicals is 50%. […]
Background: The DPPH test is a chemical assay of radical scavenging.

In data set [7] the test system is C. albicans ATCC 90029. The experiment in a line: Flow cytometry (FCM) membrane depolarization, DiBAC4(3). The class given is cell-based, Candida albicans. The note with it: subinhibitory concentration tested 2.5 mg/mL, DiBAC4, 18–24 h. The method, then:
as §1, §2, §3

Data set [8] is described as follows: Scavenger activity towards ABTS•+ free radical. The class given is biochemical. The note with it: 6 min; for IC50: linear regression over 25–1000 μM, mean ± SD of three, read-out: IC50 by means of ABTS•+ assay. The method, then: The method according to Re R. et al. was used to evaluate the scavenger capacity of the free radical.
The ABTS^•+ free radical resulted from the reaction between 2,2′-azinobis-(3-ethylbenzothiazoline-6-sulfonic acid) diammonium salt (7.4 mM) (solution 1) (Sigma-Aldrich, Germany) and potassium persulfate (2.6 mM) (solution 2) (Roth, Germany).
In order to obtain the ABTS^•+ free radical reagent, equal volumes of solutions 1 and 2 were mixed for 16 h. The obtained reagent was kept in the dark; 1 mL of the obtained solution was brought to a 50 mL volumetric flask and diluted with ethanol so that the absorbance at λ = 734 nm would be 0.700 ± 0.02.
The tested compounds were dissolved and diluted similar to the previous antioxidant assay. […]
The following formula was used for the calculation of the ABTS^•+ free radical scavenger activity (%) Inhibition %=Abst=0min−Abst=6min/Abst=0min×100 where: Abst = ABTS^•+ solution absorbance in the absence (0 min)/presence (6 min) of the tested compounds.
as §6

Data set [9] deals with P. aeruginosa ATCC 27853. Briefly: Anti-biofilm activity assay, purple violet microtiter method. The class given is cell-based, Pseudomonas aeruginosa. Particulars: P. aeruginosa ATCC 27853 biofilm. The method, then: as §4, §5
The mark [10] stands for this setting: subinhibitory concentration tested 1.25 mg/mL.
Setting [11] is: subinhibitory concentration tested 2.5 mg/mL.

In the case of `O=C(Nc1ccccc1)ON=C1c2ccccc2-c2ccccc21` [Compound 1a, 9-(phenylcarbamoyloxymino)fluoren], the “staining index value (SI)” value was 80.7 in data set [1] (setting [10]), 6.68 in data set [2], 3.5 in data set [4] (setting [11]) and 4.94 in data set [7]. In addition, the “toxicity (in words)” value in data set [3] is “not toxic”. In addition, the “minimum biofilm inhibitory concentration (MBIC)” value worked out at 0.312 mg/mL in data set [5] and 0.009 mg/mL in [9]. Further, the “DPPH free radical scavenger capacity” value came to 12.66% in [6] (at 25 μM) and 19.81% in data set [6] (at 1000 μM). Moreover, the IC50 in [6] turned out to be 5.7352 ± 8.28e-05 mM; in data set [8], 9.8854 ± 0.000251 mM.
With `Cc1cccc(NC(=O)ON=C2c3ccccc3-c3ccccc32)c1` [Compound 1b, 9-((3-methyl-phenyl)carbamoyloximino)fluoren], the “staining index value (SI)” value in data set [1] (setting [11]) turned out to be 10.2; in [2], 6.5; in data set [4] (setting [11]) it was 8.17; in [7], 2.82. In addition, the “toxicity (in words)” value in [3] is on record as “not toxic”. For the same compound, the “minimum biofilm inhibitory concentration (MBIC)” value in [5] turned out to be 0.078 mg/mL; in [9], 0.156 mg/mL. The “DPPH free radical scavenger capacity” value in data set [6] (at 1000 μM) was 16.29%. The 50% inhibitory concentration (IC50) in [6] stood at 12.263 ± 5.74e-05 mM; in [8], 9.3794 ± 0.00102 mM. In addition, the “ABTS•+ free radical scavenger activity” value in data set [8] (at 1000 μM) came out at 26.60%.
For `O=C(Nc1cccc(Cl)c1)ON=C1c2ccccc2-c2ccccc21` [Compound 1c, 9-((3-chloro-phenyl)carbamoyloxymino)fluoren], the “staining index value (SI)” value in [1] (setting [10]) is listed as 3.2; in data set [2], 2.38; in data set [4] (setting [11]), 0.19. Further, in data set [3], the “toxicity (in words)” value was “not toxic”. In addition, in data set [4] (S. aureus ATCC 25923, subinhibitory concentration), the “changes in the membrane potential” value is “did not cause changes”. The “minimum biofilm inhibitory concentration (MBIC)” value is given as 0.312 mg/mL in [5] and 1.25 mg/mL in data set [9]. Further, in data set [6] (at 1000 μM), the “DPPH free radical scavenger capacity” value came to 24.64%. Further, the IC50 is 5.208 ± 0.000124 mM in data set [6] and 18.2 mM in data set [8]. In addition, the “ABTS•+ free radical scavenger activity” value in data set [8] (at 25 μM) amounted to 12.53%.
As for `O=C(Nc1ccc(Cl)c(Cl)c1)ON=C1c2ccccc2-c2ccccc21` [Compound 1d, 9-((3,4-dichloro-phenyl)carbamoyloxymino)fluoren], the “staining index value (SI)” value in data set [1] (setting [10]) is on record as 173.3; in [2], 20.45; in data set [4] (setting [10]) it was 4.2; in [7] it was 20.21. Besides, the “toxicity (in words)” value in [3] is given as “moderate toxicity”. The “minimum biofilm inhibitory concentration (MBIC)” value in data set [5] was determined as 0.312 mg/mL; in data set [9], 1.25 mg/mL.

For orientation: IC50 means the concentration that gives 50% inhibition.

Values taken from PMC10138554, “Insights into the Microbicidal, Antibiofilm, Antioxidant and Toxicity Profile of New O-Aryl-Carbamoyl-Oxymino-Fluorene Derivatives” (International Journal of Molecular Sciences, 2023).
